Laboratory results as given in ChEMBL document CHEMBL4507264, “Data for DCP probe BAY-7598” (2021).
Active and inactive are the calls of the source. No cut-off for these calls is given here.

Assays:
[1] = molecular target: Macrophage metalloelastase (Homo sapiens, UniProt P39900); test: Biochemical assay (MMP12)
[2] = molecular target: RAC-alpha serine/threonine-protein kinase (Homo sapiens) (UniProt P31749); conditions: Compound concentration 1000.0 nM
[3] = molecular target: ALK tyrosine kinase receptor (Homo sapiens) (UniProt Q9UM73); conditions: Compound concentration 1000.0 nM
[4] = molecular target: Tyrosine-protein kinase Blk (Homo sapiens) (UniProt P51451); conditions: Compound concentration 1000.0 nM
[5] = molecular target: Cyclin-dependent kinase 19 (Homo sapiens) (UniProt Q9BWU1); conditions: Compound concentration 1000.0 nM
[6] = molecular target: Cyclin-dependent kinase-like 2 (Homo sapiens) (UniProt Q92772); conditions: Compound concentration 1000.0 nM
[7] = molecular target: Dual specificity protein kinase CLK1 (Homo sapiens) (UniProt P49759); conditions: Compound concentration 1000.0 nM
[8] = molecular target: Dual specificity tyrosine-phosphorylation-regulated kinase 1B (Homo sapiens) (UniProt Q9Y463); conditions: Compound concentration 1000.0 nM
[9] = system: Epidermal growth factor receptor (Homo sapiens), P00533 [L858R]; conditions: Compound concentration 1000.0 nM
[10] = molecular target: Eukaryotic translation initiation factor 2-alpha kinase 1 (Homo sapiens) (UniProt Q9BQI3); conditions: Compound concentration 1000.0 nM
[11] = molecular target: Receptor tyrosine-protein kinase erbB-4 (Homo sapiens) (UniProt Q15303); conditions: Compound concentration 1000.0 nM
[12] = system: Receptor-type tyrosine-protein kinase FLT3 (Homo sapiens), P36888 [D835H]; conditions: Compound concentration 1000.0 nM
[13] = molecular target: Tyrosine-protein kinase Fyn (Homo sapiens) (UniProt P06241); conditions: Compound concentration 1000.0 nM
[14] = molecular target: Rhodopsin kinase GRK1 (Homo sapiens) (UniProt Q15835); conditions: Compound concentration 1000.0 nM
[15] = molecular target: Homeodomain-interacting protein kinase 2 (Homo sapiens) (UniProt Q9H2X6); conditions: Compound concentration 1000.0 nM
[16] = molecular target: Homeodomain-interacting protein kinase 3 (Homo sapiens) (UniProt Q9H422); conditions: Compound concentration 1000.0 nM
[17] = molecular target: Homeodomain-interacting protein kinase 4 (Homo sapiens) (UniProt Q8NE63); conditions: Compound concentration 1000.0 nM
[18] = molecular target: Insulin-like growth factor 1 receptor (Homo sapiens) (UniProt P08069); conditions: Compound concentration 1000.0 nM
[19] = system: Mast/stem cell growth factor receptor Kit (Homo sapiens), P10721 [V559D,T670I]; conditions: Compound concentration 1000.0 nM
[20] = molecular target: Mitogen-activated protein kinase kinase kinase kinase 2 (Homo sapiens) (UniProt Q12851); conditions: Compound concentration 1000.0 nM
[21] = molecular target: Dual specificity mitogen-activated protein kinase kinase 2 (Homo sapiens) (UniProt P36507); conditions: Compound concentration 1000.0 nM
[22] = molecular target: Mitogen-activated protein kinase kinase kinase 10 (Homo sapiens) (UniProt Q02779); conditions: Compound concentration 1000.0 nM
Sequence of Mitogen-activated protein kinase kinase kinase 10 (Homo sapiens) (Q02779 whole entry, looked up): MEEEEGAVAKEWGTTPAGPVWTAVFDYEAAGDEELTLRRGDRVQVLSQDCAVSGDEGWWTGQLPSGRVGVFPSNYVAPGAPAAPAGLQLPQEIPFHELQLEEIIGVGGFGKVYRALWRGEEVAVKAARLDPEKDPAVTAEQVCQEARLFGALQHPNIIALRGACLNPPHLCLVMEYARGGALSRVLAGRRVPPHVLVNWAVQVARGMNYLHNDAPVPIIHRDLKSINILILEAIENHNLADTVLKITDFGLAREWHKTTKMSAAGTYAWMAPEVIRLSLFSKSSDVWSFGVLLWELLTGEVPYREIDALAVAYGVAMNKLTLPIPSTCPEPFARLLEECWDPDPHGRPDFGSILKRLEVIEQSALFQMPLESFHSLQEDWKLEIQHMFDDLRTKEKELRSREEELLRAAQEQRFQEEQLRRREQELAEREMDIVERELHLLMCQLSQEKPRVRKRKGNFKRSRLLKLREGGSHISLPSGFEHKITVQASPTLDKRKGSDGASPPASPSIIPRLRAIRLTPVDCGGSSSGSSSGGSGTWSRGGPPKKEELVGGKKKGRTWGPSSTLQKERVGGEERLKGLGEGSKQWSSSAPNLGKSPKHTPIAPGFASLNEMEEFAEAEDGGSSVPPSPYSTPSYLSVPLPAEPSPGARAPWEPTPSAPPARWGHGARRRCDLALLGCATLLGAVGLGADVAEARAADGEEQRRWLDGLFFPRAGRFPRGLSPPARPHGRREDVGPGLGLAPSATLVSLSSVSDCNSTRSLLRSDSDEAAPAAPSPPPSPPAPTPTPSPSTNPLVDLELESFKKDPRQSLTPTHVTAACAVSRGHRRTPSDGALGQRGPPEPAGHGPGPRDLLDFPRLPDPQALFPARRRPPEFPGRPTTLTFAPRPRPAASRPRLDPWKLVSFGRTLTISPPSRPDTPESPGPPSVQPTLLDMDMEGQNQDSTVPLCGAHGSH

[23] = molecular target: Serine/threonine-protein kinase MRCK alpha (Homo sapiens) (UniProt Q5VT25); conditions: Compound concentration 1000.0 nM
Sequence of Serine/threonine-protein kinase MRCK alpha (Homo sapiens) (Q5VT25 whole entry): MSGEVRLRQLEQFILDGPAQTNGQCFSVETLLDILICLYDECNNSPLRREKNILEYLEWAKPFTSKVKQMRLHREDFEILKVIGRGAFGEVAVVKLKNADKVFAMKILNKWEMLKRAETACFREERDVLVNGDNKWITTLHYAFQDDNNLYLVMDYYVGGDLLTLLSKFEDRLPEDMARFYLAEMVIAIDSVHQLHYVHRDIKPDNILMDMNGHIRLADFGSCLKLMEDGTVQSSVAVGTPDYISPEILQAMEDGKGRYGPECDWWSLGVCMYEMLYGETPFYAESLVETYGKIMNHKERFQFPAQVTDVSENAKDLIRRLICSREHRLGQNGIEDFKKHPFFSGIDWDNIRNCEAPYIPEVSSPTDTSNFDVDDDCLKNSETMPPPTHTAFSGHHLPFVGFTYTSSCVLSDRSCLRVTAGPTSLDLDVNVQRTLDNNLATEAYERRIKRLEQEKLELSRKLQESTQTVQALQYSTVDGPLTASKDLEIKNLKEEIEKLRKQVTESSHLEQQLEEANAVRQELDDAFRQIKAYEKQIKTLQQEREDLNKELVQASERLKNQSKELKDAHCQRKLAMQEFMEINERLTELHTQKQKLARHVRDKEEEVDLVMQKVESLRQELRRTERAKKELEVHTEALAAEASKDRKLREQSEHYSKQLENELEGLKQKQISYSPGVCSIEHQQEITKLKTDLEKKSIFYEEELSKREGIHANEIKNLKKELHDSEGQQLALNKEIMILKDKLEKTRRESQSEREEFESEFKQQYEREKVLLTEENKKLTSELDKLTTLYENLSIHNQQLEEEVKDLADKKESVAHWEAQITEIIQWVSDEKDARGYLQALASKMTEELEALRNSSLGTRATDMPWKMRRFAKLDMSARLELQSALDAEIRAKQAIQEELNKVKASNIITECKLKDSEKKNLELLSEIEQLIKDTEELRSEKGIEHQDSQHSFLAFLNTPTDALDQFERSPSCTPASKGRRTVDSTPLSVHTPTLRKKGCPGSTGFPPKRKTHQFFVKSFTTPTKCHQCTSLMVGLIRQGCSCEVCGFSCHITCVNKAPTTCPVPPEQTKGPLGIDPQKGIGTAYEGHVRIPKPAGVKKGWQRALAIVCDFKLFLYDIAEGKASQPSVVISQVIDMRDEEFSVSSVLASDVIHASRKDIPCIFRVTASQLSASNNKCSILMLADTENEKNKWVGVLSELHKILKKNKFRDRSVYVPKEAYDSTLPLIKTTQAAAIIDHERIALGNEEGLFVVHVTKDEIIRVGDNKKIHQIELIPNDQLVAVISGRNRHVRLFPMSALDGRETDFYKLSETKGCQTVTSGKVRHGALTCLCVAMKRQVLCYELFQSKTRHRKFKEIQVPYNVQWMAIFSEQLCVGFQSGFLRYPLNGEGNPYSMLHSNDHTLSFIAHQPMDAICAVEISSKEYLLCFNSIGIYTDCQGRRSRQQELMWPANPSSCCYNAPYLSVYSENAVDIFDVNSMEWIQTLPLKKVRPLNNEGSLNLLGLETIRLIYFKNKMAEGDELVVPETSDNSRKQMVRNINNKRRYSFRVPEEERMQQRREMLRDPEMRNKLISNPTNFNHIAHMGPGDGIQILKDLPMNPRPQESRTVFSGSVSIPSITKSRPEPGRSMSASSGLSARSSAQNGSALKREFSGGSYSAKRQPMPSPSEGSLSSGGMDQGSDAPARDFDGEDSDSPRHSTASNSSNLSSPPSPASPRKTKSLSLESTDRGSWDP

[24] = molecular target: Serine/threonine-protein kinase Nek1 (Homo sapiens) (UniProt Q96PY6); conditions: Compound concentration 1000.0 nM
[25] = molecular target: Serine/threonine-protein kinase Nek6 (Homo sapiens) (UniProt Q9HC98); conditions: Compound concentration 1000.0 nM
[26] = molecular target: Phosphorylase b kinase gamma catalytic chain, skeletal muscle/heart isoform (Homo sapiens) (UniProt Q16816); conditions: Compound concentration 1000.0 nM
Sequence of Phosphorylase b kinase gamma catalytic chain, skeletal muscle/heart isoform (Homo sapiens) (Q16816 whole entry, looked up, the tested form may be a part, canonical isoform): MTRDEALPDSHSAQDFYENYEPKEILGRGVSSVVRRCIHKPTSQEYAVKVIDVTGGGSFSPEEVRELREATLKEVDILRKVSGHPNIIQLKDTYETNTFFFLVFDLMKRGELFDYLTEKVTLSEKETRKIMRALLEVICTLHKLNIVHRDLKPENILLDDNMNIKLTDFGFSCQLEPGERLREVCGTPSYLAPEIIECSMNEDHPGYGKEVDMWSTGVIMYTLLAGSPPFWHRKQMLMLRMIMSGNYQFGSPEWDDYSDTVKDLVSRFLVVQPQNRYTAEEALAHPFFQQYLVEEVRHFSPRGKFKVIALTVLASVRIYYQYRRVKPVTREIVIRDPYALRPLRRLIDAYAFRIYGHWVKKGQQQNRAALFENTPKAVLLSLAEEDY

[27] = molecular target: Phosphatidylinositol 3-kinase C2 domain-containing subunit gamma (Homo sapiens) (UniProt O75747); conditions: Compound concentration 1000.0 nM
[28] = system: Phosphatidylinositol 4,5-bisphosphate 3-kinase catalytic subunit alpha isoform (Homo sapiens), P42336 [Q546K]; conditions: Compound concentration 1000.0 nM
[29] = molecular target: Serine/threonine-protein kinase D3 (Homo sapiens) (UniProt O94806); conditions: Compound concentration 1000.0 nM
[30] = molecular target: cGMP-dependent protein kinase 1 (Homo sapiens) (UniProt Q13976); conditions: Compound concentration 1000.0 nM
[31] = molecular target: Serine/threonine-protein kinase PRP4 homolog (Homo sapiens) (UniProt Q13523); conditions: Compound concentration 1000.0 nM
[32] = molecular target: Serine/threonine-protein kinase SIK2 (Homo sapiens) (UniProt Q9H0K1); conditions: Compound concentration 1000.0 nM
[33] = molecular target: TGF-beta receptor type-1 (Homo sapiens) (UniProt P36897); conditions: Compound concentration 1000.0 nM
Sequence of TGF-beta receptor type-1 (Homo sapiens) (P36897 whole entry): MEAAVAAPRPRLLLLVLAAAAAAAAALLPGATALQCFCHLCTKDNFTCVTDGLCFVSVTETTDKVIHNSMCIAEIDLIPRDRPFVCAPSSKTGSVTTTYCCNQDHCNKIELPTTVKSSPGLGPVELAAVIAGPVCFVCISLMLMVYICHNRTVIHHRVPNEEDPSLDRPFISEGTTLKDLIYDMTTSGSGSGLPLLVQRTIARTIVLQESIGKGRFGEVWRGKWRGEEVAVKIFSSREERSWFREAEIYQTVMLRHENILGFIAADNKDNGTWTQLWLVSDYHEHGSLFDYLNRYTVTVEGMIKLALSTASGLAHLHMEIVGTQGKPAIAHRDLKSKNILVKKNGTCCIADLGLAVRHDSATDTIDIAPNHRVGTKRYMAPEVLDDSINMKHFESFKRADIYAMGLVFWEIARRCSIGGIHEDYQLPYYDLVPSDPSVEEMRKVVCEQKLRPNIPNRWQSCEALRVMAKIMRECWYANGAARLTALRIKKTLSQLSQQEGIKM

[34] = molecular target: Serine/threonine-protein kinase tousled-like 2 (Homo sapiens) (UniProt Q86UE8); conditions: Compound concentration 1000.0 nM
[35] = molecular target: NT-3 growth factor receptor (Homo sapiens) (UniProt Q16288); conditions: Compound concentration 1000.0 nM
Sequence of NT-3 growth factor receptor (Homo sapiens) (Q16288 32-839 limits assumed): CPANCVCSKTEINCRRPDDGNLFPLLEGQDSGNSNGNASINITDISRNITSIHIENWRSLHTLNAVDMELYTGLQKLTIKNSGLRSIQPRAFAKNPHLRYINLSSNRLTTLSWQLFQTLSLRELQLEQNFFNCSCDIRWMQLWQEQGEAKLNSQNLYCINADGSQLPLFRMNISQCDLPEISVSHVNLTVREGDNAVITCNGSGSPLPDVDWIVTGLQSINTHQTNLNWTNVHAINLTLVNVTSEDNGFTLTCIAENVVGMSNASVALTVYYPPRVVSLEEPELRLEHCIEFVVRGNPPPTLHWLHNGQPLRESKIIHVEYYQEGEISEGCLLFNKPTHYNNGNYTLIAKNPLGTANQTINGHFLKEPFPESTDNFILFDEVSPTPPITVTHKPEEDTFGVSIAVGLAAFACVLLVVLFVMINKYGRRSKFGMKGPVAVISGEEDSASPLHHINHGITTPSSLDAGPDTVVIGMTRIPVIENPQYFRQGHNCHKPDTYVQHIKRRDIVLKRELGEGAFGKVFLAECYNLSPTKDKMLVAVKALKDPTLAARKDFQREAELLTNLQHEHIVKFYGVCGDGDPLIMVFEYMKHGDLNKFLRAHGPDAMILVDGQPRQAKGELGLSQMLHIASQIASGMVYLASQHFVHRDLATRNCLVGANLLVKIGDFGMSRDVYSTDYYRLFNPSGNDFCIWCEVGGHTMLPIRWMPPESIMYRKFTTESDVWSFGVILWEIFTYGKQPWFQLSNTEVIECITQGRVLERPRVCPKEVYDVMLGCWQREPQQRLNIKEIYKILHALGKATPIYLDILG

[36] = molecular target: Serine/threonine-protein kinase WNK3 (Homo sapiens) (UniProt Q9BYP7); conditions: Compound concentration 1000.0 nM
[37] = molecular target: Serine/threonine-protein kinase 32A (Homo sapiens) (UniProt Q8WU08); conditions: Compound concentration 1000.0 nM
[38] = molecular target: Serine/threonine-protein kinase 32C (Homo sapiens) (UniProt Q86UX6); conditions: Compound concentration 1000.0 nM
[39] = molecular target: 5-hydroxytryptamine receptor 1B (Homo sapiens) (UniProt P28222); conditions: Compound concentration 10.0 uM
Sequence of 5-hydroxytryptamine receptor 1B (Homo sapiens) (P28222 whole entry): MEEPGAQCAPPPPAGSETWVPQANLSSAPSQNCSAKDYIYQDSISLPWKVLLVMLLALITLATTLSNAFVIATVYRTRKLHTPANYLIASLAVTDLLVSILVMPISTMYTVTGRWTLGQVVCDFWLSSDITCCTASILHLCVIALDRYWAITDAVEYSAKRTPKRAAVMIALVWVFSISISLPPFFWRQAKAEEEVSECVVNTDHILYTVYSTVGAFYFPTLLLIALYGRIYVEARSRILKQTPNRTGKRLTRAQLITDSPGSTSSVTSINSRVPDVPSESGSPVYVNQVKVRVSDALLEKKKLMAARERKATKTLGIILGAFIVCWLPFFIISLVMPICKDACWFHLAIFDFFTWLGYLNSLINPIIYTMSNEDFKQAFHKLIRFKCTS

[40] = molecular target: 5-hydroxytryptamine receptor 1E (Homo sapiens) (UniProt P28566); conditions: Compound concentration 10.0 uM
[41] = molecular target: 5-hydroxytryptamine receptor 2A (Homo sapiens) (UniProt P28223); conditions: Compound concentration 10.0 uM
[42] = molecular target: 5-hydroxytryptamine receptor 2B (Homo sapiens) (UniProt P41595); conditions: Compound concentration 10.0 uM
[43] = molecular target: D(2) dopamine receptor (Homo sapiens) (UniProt P14416); conditions: Compound concentration 10.0 uM
[44] = molecular target: Histamine H4 receptor (Homo sapiens) (UniProt Q9H3N8); conditions: Compound concentration 10.0 uM
[45] = molecular target: Sigma intracellular receptor 2 (Homo sapiens) (UniProt Q5BJF2); conditions: Compound concentration 10.0 uM
Sequence of Sigma intracellular receptor 2 (Homo sapiens) (Q5BJF2 whole entry): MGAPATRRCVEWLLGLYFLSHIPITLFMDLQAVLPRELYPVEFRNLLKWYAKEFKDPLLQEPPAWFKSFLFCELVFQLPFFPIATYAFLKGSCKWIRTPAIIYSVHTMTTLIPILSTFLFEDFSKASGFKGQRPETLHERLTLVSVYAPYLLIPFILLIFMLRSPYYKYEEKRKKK

**Q.** With `O=C(O)[C@H]1[C@H](Cn2nnc3ccccc3c2=O)CC[C@@H]1C(=O)c1ccc(OCCC2CCOCC2)cc1` [BAY-7598] as the molecule, how does the IC50 [1] read?
**A.** 0.085 nM (active)

**Q.** And the residual activity [2]?
**A.** 83%

**Q.** And the residual activity [3]?
**A.** 100%

**Q.** What about the residual activity [4] of the same molecule?
**A.** 100%

**Q.** What about the residual activity [5] of the same molecule?
**A.** 100%

**Q.** And the residual activity [6]?
**A.** 97%

**Q.** What about the residual activity [7] of the same molecule?
**A.** 98%

**Q.** What about the residual activity [8] of the same molecule?
**A.** 100%

**Q.** And the residual activity [9]?
**A.** 95%

**Q.** And the residual activity [10]?
**A.** 78%

**Q.** What about the residual activity [11] of the same molecule?
**A.** 89%

**Q.** And the residual activity [12]?
**A.** 72%

**Q.** What about the residual activity [13] of the same molecule?
**A.** 100%

**Q.** What about the residual activity [14] of the same molecule?
**A.** 97%

**Q.** What about the residual activity [15] of the same molecule?
**A.** 100%

**Q.** And the residual activity [16]?
**A.** 99%

**Q.** What about the residual activity [17] of the same molecule?
**A.** 100%

**Q.** And the residual activity [18]?
**A.** 100%

**Q.** And the residual activity [19]?
**A.** 69%

**Q.** What about the residual activity [20] of the same molecule?
**A.** 100%

**Q.** And the residual activity [21]?
**A.** 100%

**Q.** What about the residual activity [22] of the same molecule?
**A.** 82%

**Q.** What about the residual activity [23] of the same molecule?
**A.** 100%

**Q.** What about the residual activity [24] of the same molecule?
**A.** 82%

**Q.** And the residual activity [25]?
**A.** 100%

**Q.** What about the residual activity [26] of the same molecule?
**A.** 74%

**Q.** What about the residual activity [27] of the same molecule?
**A.** 99%

**Q.** And the residual activity [28]?
**A.** 97%

**Q.** And the residual activity [29]?
**A.** 88%

**Q.** And the residual activity [30]?
**A.** 75%

**Q.** And the residual activity [31]?
**A.** 67%

**Q.** What about the residual activity [32] of the same molecule?
**A.** 100%

**Q.** What about the residual activity [33] of the same molecule?
**A.** 90%

**Q.** And the residual activity [34]?
**A.** 98%

**Q.** And the residual activity [35]?
**A.** 82%

**Q.** And the residual activity [36]?
**A.** 100%

**Q.** What about the residual activity [37] of the same molecule?
**A.** 88%

**Q.** What about the residual activity [38] of the same molecule?
**A.** 89%

**Q.** What about the inhibition [39] of the same molecule?
**A.** 11.5%

**Q.** What about the inhibition [40] of the same molecule?
**A.** 7.37%

**Q.** What about the inhibition [41] of the same molecule?
**A.** 16.2%

**Q.** What about the inhibition [42] of the same molecule?
**A.** 22.8%

**Q.** What about the inhibition [43] of the same molecule?
**A.** 30.3%

**Q.** And the inhibition [44]?
**A.** 1.99%

**Q.** And the inhibition [45]?
**A.** 28.5%

**Q.** Which IC50 [1] does the source give for `O=C(O)[C@@H]1[C@@H](Cn2nnc3ccccc3c2=O)CC[C@H]1C(=O)c1ccc(OCCC2CCOCC2)cc1` [BAY-694] here?
**A.** 80 nM (not active)

**Q.** And the residual activity [2]?
**A.** 75%

**Q.** What about the residual activity [3] of the same molecule?
**A.** 100%

**Q.** What about the residual activity [4] of the same molecule?
**A.** 95%

**Q.** And the residual activity [5]?
**A.** 100%

**Q.** What about the residual activity [6] of the same molecule?
**A.** 73%

**Q.** What about the residual activity [7] of the same molecule?
**A.** 98%

**Q.** And the residual activity [8]?
**A.** 86%

**Q.** And the residual activity [9]?
**A.** 100%

**Q.** What about the residual activity [10] of the same molecule?
**A.** 100%

**Q.** What about the residual activity [11] of the same molecule?
**A.** 100%

**Q.** What about the residual activity [12] of the same molecule?
**A.** 83%

**Q.** And the residual activity [13]?
**A.** 76%

**Q.** And the residual activity [14]?
**A.** 100%

**Q.** And the residual activity [15]?
**A.** 100%

**Q.** What about the residual activity [16] of the same molecule?
**A.** 100%

**Q.** And the residual activity [17]?
**A.** 100%

**Q.** And the residual activity [18]?
**A.** 100%

**Q.** What about the residual activity [19] of the same molecule?
**A.** 98%

**Q.** And the residual activity [20]?
**A.** 97%

**Q.** And the residual activity [21]?
**A.** 100%

**Q.** And the residual activity [22]?
**A.** 100%

**Q.** What about the residual activity [23] of the same molecule?
**A.** 91%

**Q.** What about the residual activity [24] of the same molecule?
**A.** 100%

**Q.** And the residual activity [25]?
**A.** 100%

**Q.** And the residual activity [26]?
**A.** 100%

**Q.** And the residual activity [27]?
**A.** 95%

**Q.** And the residual activity [28]?
**A.** 86%

**Q.** What about the residual activity [29] of the same molecule?
**A.** 100%

**Q.** What about the residual activity [30] of the same molecule?
**A.** 100%

**Q.** And the residual activity [31]?
**A.** 80%

**Q.** What about the residual activity [32] of the same molecule?
**A.** 91%

**Q.** And the residual activity [33]?
**A.** 100%

**Q.** What about the residual activity [34] of the same molecule?
**A.** 93%

**Q.** What about the residual activity [35] of the same molecule?
**A.** 86%

**Q.** What about the residual activity [36] of the same molecule?
**A.** 100%

**Q.** And the residual activity [37]?
**A.** 92%

**Q.** What about the residual activity [38] of the same molecule?
**A.** 100%

**Q.** What about the inhibition [39] of the same molecule?
**A.** 8.05%

**Q.** And the inhibition [40]?
**A.** 3.94%

**Q.** What about the inhibition [41] of the same molecule?
**A.** 18.4%

**Q.** And the inhibition [42]?
**A.** 36.2%

**Q.** What about the inhibition [43] of the same molecule?
**A.** -5.06%

**Q.** And the inhibition [44]?
**A.** 3.39%

**Q.** And the inhibition [45]?
**A.** 39.3%
